ChEMBL document CHEMBL1201862, “PubChem BioAssay data set” (2004)
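Cells were grown in 96-well plates and exposed to each compound for 48 hours at five concentrations; endpoints were interpolated linearly between bracketing concentrations, or set to the highest concentration if not reached. The concentration for 50% growth inhibition is given as GI50.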 Calls of active or inactive are those of the source. Cut-off read from the data, not from the text of the source: active = GI50 up to about 1.1 µM and inactive = higher.

Columns and labels:
Experiment in all cases: DTP human tumour cell line panel, 48 h
[1] = system: MOLT-4
[2] = system: MDA-MB-231
[3] = system: NCI-H522
[4] = system: SF-268
[5] = system: ACHN
[6] = system: LOX IMVI
[7] = system: OVCAR-8
[8] = system: K562
[9] = system: HCT-15
[10] = system: SNB-75
[11] = system: MDA-MB-435
[12] = system: A549
[13] = system: HOP-92
[14] = system: CAKI-1
[15] = system: U-251
[16] = system: DU-145
[17] = system: NCI-H226
[18] = system: MDA-N
[19] = system: KM12
[20] = system: SK-MEL-28

Measured: GI50

CC(=O)O[C@H]1CC[C@@]2(C)C(=CC[C@@H]3[C@@H]2CC[C@](C)(c2nnc(C)o2)[C@H]3CC#N)C1
> 100 µM: [9]
inactive: [1] > 100 µM | [2] > 100 µM | [3] > 100 µM | [4] > 100 µM | [5] > 100 µM | [6] > 100 µM | [7] > 100 µM | [8] > 100 µM | [10] 51.6 µM | [11] > 100 µM | [12] > 100 µM | [13] > 100 µM | [14] > 100 µM | [15] > 100 µM | [16] > 100 µM | [17] > 100 µM | [18] > 100 µM | [19] > 100 µM

O=C(/C=C/c1ccccc1)CSc1nc2ccc(I)cc2c(=O)n1Cc1ccccc1
inactive: [1] 9.82 µM | [2] 28.9 µM | [3] 12.3 µM | [4] 14.8 µM | [5] 7.64 µM | [6] 37 µM | [7] 25.5 µM | [8] 13.9 µM | [10] 29.8 µM | [11] 38.9 µM | [12] 39.9 µM | [20] 99.5 µM | [13] 5.55 µM | [14] 1.71 µM | [15] 26.5 µM | [16] 15.2 µM | [17] 12.7 µM | [18] 30.8 µM | [19] 14.5 µM
19.5 µM: [9]

O=C(NC(=O)c1ccccc1[N+](=O)[O-])Nc1ccc(Oc2ncc(Br)cn2)c(Cl)c1
0.0441 µM: [9]
active: [1] 0.033 µM | [2] 0.0469 µM | [3] 0.0131 µM | [4] 0.0478 µM | [5] 0.0508 µM | [6] 0.0528 µM | [7] 0.0301 µM | [8] 0.0194 µM | [10] 0.0231 µM | [11] 0.00802 µM | [12] 0.0428 µM | [20] 0.0286 µM | [13] 0.0495 µM | [14] 0.0194 µM | [15] 0.0427 µM | [16] 0.0318 µM | [17] 0.0148 µM | [18] 0.00857 µM | [19] 0.023 µM

C#C[C@]1(O)CC[C@H]2[C@@H]3CCC4=C/C(=N/NC(=O)c5cccc6c(=O)c7ccccc7[nH]c56)CCC4[C@H]3CC[C@@]21C (some centres not stated)
73.8 µM: [9]
inactive: [1] 24.1 µM | [2] > 100 µM | [3] 15.8 µM | [4] > 100 µM | [5] 65.6 µM | [6] 58.1 µM | [7] 21.3 µM | [8] 73.5 µM | [10] 15 µM | [11] 38.7 µM | [12] 60.3 µM | [13] > 100 µM | [14] > 100 µM | [15] 29.8 µM | [16] > 100 µM | [17] 73.8 µM | [18] 50.4 µM | [19] 25.5 µM

COC12COC(=O)C1C(c1ccc3c(c1)OCO3)c1cc3c(cc1O2)OCO3 (configuration not stated)
inactive: [1] 7.11 µM | [2] 25.4 µM | [3] 6.14 µM | [4] 27.9 µM | [5] 29.1 µM | [6] 12.8 µM | [7] 26.1 µM | [8] 4.21 µM | [10] 7.71 µM | [11] 2.72 µM | [12] 16.7 µM | [20] 32.8 µM | [13] 37.8 µM | [14] > 73.8 µM | [15] 32 µM | [16] 25 µM | [17] 34.3 µM | [18] 2.69 µM | [19] 7.91 µM
7.08 µM: [9]

O=c1c2cc(Br)cc(Br)c2[nH]c(=S)n1-c1ccc(/N=N/c2ccc(O)c3cccnc23)cc1
inactive: [1] 24.8 µM | [2] 32.2 µM | [3] 18.7 µM | [4] 17.2 µM | [5] 25.4 µM | [6] 24.5 µM | [7] 23.3 µM | [8] 10.7 µM | [10] 29.2 µM | [11] 35.4 µM | [12] 17.8 µM | [20] 76.9 µM | [13] 18 µM | [14] 54.3 µM | [15] 19.7 µM | [16] 33 µM | [17] > 100 µM | [18] 31.4 µM | [19] > 100 µM

Cc1csc(NCc2ccc(Cl)cc2)n1
39.1 µM: [9]
inactive: [1] 35.9 µM | [2] 40.6 µM | [3] 28.9 µM | [4] 51.2 µM | [5] 70.1 µM | [6] 99.3 µM | [7] 56.2 µM | [8] 45.7 µM | [10] 36.3 µM | [11] 52.2 µM | [12] 40.5 µM | [20] 85.1 µM | [13] 23.4 µM | [14] 60.5 µM | [15] 41.3 µM | [16] > 100 µM | [17] 33.8 µM | [18] 57.7 µM | [19] 56.1 µM
